Experiments:
guanylyl cyclase type C = guanylyl cyclase type C (Homo sapiens, UniProt P25092); conditions: literature comparator; read-out: potency (IC50); cited from earlier work
[1] = target: guanylyl cyclase type C (GC-C) (Homo sapiens, UniProt P25092); experiment: STa-induced activation of GC-C in T84 cells (cyclic GMP accumulation, ELISA); assay type: cell-based; set-up: endogenous in cells; host or cells: T84 cells
[2] = system: adenylyl cyclase or guanylyl cyclase; assay type: cell-based; conditions: read-out: typical IC50

Chain of guanylyl cyclase type C (GC-C) (P25092 24-1073): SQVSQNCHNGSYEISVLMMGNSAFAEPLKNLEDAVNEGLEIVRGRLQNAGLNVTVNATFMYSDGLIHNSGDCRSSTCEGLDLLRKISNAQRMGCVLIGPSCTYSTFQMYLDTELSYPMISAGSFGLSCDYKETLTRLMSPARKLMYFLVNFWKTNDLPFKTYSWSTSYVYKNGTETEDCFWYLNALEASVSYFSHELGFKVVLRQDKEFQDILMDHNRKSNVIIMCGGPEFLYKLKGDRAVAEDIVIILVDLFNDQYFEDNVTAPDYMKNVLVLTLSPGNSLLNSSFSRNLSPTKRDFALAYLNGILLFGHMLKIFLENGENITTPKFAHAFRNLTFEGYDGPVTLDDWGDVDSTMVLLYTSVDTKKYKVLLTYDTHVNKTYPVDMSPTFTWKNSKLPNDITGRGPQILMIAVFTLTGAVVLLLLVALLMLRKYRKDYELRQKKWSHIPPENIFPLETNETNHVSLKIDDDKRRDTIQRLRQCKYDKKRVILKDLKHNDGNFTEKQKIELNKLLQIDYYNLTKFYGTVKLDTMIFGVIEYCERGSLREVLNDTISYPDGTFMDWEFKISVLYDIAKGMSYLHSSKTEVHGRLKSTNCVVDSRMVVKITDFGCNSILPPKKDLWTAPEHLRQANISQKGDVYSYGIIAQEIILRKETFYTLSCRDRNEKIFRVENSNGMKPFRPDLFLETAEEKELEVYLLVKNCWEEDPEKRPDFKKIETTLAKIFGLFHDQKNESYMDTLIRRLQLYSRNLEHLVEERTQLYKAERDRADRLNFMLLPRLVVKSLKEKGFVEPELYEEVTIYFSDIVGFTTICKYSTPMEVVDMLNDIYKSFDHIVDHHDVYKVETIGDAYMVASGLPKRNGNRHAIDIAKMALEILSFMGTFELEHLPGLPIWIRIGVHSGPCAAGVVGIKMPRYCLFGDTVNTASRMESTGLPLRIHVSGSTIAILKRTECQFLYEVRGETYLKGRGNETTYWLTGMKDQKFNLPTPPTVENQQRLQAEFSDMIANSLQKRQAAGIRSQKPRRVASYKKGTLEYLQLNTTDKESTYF
Chain of guanylyl cyclase type C (P25092 24-1073): as above

Structure (SMILES)	inhibition of STa-induced activation of GC-C (FIG. 2) [1]	also measured
Nc1nc(Cl)nc2c1ncn2[C@@H]1O[C@H](CO)[C@@H](O)[C@H]1O [2-chloroadenosine]		IC50 (guanylyl cyclase type C): ~50 µM
Cn1c2c(c(=O)n(C)c1=O)C(c1ccc(O)c(O)c1)C1C(=O)c3ccccc3C1=N2 (centres unmarked) [IIIa]	inhibition	
Cn1c2c(c(=O)n(C)c1=O)C(c1ccc(O)c(O)c1)C1=C(N2)c2ccccc2C1=O (centres unmarked) [IIIb]	inhibition	
COc1cc(C2C3=C(Nc4c2c(=O)n(C)c(=O)n4C)c2ccccc2C3=O)ccc1O (centres unmarked) [IVb]	inhibition	
CC(C)C(=O)N1C2=C(C(=O)c3ccccc32)C(c2ccc(Cl)cc2)c2c1n(C)c(=O)n(C)c2=O (centres unmarked) [VII]	inhibition	
CCCC(=O)N1C2=C(C(=O)c3ccccc32)C(c2ccc(Cl)cc2)c2c1n(C)c(=O)n(C)c2=O (centres unmarked) [VI]	inhibition	
CCOc1cc(C2C3=C(Nc4c2c(=O)n(C)c(=O)n4C)c2ccccc2C3=O)ccc1O (centres unmarked) [Vb]	inhibition	
Cn1c2c(c(=O)n(C)c1=O)C(c1cccc(Br)c1)C1C(=O)c3ccccc3C1=N2 (centres unmarked) [compound IIa, 5-(3-bromophenyl)-1,3-dimethyl-5,11-dihydro-1H-indeno[2′,1′:5,6]pyrido[2,3-d]pyrimidine-2,4,6-trione]	inhibition	IC50 [2]: ~5 µM; inhibition at 50 µM ([1]; 100 nM STa, 50 μM compound): 87.1%; level of cyclic GMP ([1]; 100 nM STa, 50 μM compound, vehicle 124±10, basal 6±2): 21±4 pmol/mg protein

Source: patent US20100035867A1 (priority 2006, published 2010)
